Experimental data taken from the supplement of paper PMC10307832.

Assays:
Assay in all cases: relative viability (nuclei count vs DMSO), 5 days (fraction); higher = more cells survive
[1] = compound: C1/C(=C\C2=CC=CS2)/C(=O)/C(=C/C3=CC=CS3)/C1 + COc1cccc2cc(-c3nc([C@H]4CC[C@H](C(=O)O)CC4)n4ncnc(N)c34)[nH]c12 [OSI-027] (partner 0.5 µM)
Method in brief: (§1)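 Lung cancer cell lines in 1536-well plates got either a single drug or a fixed anchor-drug dose together with five library-drug doses (not always all listed) in √10 steps, by pin tool, on the day after seeding. Nuclei were counted after 5 days, and relative viability is the treated-to-vehicle ratio of nuclei counts. Values are medians of duplicate plates.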

[2] = compound: C1/C(=C\C2=CC=CS2)/C(=O)/C(=C/C3=CC=CS3)/C1 + Cc1cc(Nc2cc(N3CCN(C)CC3)nc(Sc3ccc(NC(=O)C4CC4)cc3)n2)n[nH]1 [Tozasertib] (partner 0.1 µM)
Method in brief: as §1

[3] = compound: C1/C(=C\C2=CC=CS2)/C(=O)/C(=C/C3=CC=CS3)/C1 + N=C(N)NC(=N)NCCc1ccccc1 [Phenformin] (partner 250 µM)
Method in brief: as §1

[4] = compound: C1=CC(=CC=C1C2=CC(=C(S2)NC(=O)N)C(=O)N)F [TPCA-1] + CS(=O)(=O)N1CCN(Cc2cc3nc(-c4cccc5[nH]ncc45)nc(N4CCOCC4)c3s2)CC1 [Pictilisib] (partner 1 µM)
Method in brief: as §1

In the case of UMC-11, the relative viability ([1]; first compound 0.2 µM) was 0.474, the relative viability ([1]; first compound 0.6325 µM) was 0.484 and the relative viability ([1]; first compound 20 µM) was 0.45. The relative viability ([2]; first compound 0.2 µM) was 0.204, the relative viability ([2]; first compound 0.6325 µM) was 0.192 and the relative viability ([2]; first compound 2 µM) was 0.212. For the same cell line, the relative viability ([2]; first compound 6.325 µM) was 0.202, the relative viability ([2]; first compound 20 µM) was 0.205 and the relative viability ([3]; first compound 0.2 µM) was 0.32. For the same cell line, the relative viability ([3]; first compound 0.6325 µM) was 0.365, the relative viability ([3]; first compound 20 µM) was 0.324 and the relative viability ([4]; first compound 0.04 µM) was 0.781. It also gave a relative viability ([4]; first compound 0.1265 µM) of 0.685, a relative viability ([4]; first compound 0.4 µM) of 0.881 and a relative viability ([4]; first compound 1.265 µM) of 0.735. The relative viability ([4]; first compound 4 µM) was 0.127.
